Values of other authors as cited in US6566543B2, “2-arachidonylglycerol (2-AG)-an inhibitor of tumor necrosis factor-α and neuroprotector of brain in closed head injury” (Yissum Research Development Company of The Hebrew …, priority 2000, dated 2003).

Assays:
TNF-α = details: astrocytes
nitric oxide release = details: astrocytes
cannabinoid receptors = details: previously shown, Ben-Shabat et al., 1998

Compound | inhibition of TNF-α production (TNF-α) | nitric oxide release (nitric oxide release) | activity in numerous in vivo and in vitro assays (including binding to the cannabinoid receptors) (cannabinoid receptors)
CCCCC/C=C\C/C=C\C/C=C\C/C=C\CCCC(=O)NCCO [Anandamide, arachidonylethanolamide] | relatively modest | blocked nitric oxide release | 
CCCCC/C=C\C/C=C\CCCCCCCC(=O)OC(CO)CO [2-LinoG, 2-linoleoylglycerol] |  |  | inactive
CCCCCCCCCCCCCCCC(=O)OC(CO)CO [2-PalmG, 2-palmitoylglycerol] |  |  | inactive
